Measured values taken from ChEMBL document CHEMBL4373736, “Synthesis and biological evaluation of panaxatriol derivatives against myocardial ischemia/reperfusion injury in the rat” (Eur J Med Chem, 2020).
The source made the active and inactive calls. No cut-off for these calls is given here.

How the values were obtained:
Rattus norvegicus [1] = experiment: (§1) Cardioprotective activity in Sprague-Dawley rat model of LAD coronary artery ligation-induced ischemia/reperfusion assessed as infarct size of left ventricle size at 20 mg/kg, ig pretreated twice a day for 3 days and measured 24 hrs post-reperfusion by TTC staining based assay (reference value: 49.1 %); assay type: functional
Rattus norvegicus [2] = experiment: Cardioprotective activity in ig dosed Sprague-Dawley rat model of LAD coronary artery ligation-induced ischemia/reperfusion assessed as reduction in serum cardiac troponin1 level pretreated twice a day for 3 days and measured 24 hrs post-reperfusion; assay type: functional, organism-based
Rattus norvegicus [3] = experiment: as §1, with “40” for “20”; assay type: functional
Rattus norvegicus [4] = experiment: Cardioprotective activity in ig dosed Sprague-Dawley rat model of LAD coronary artery ligation-induced ischemia/reperfusion assessed as change in myocardial structure at 10 to 40 mg/kg, ig pretreated twice a day for 3 days and measured 24 hrs post-reperfusion by hematoxylin and eosin staining based assay; assay type: functional, organism-based
Cardiac muscle cell [5] = experiment: Cytoprotective activity against OGD/reperfusion induced injury in Sprague-Dawley rat cardiomyocytes assessed as effect on cell viability at 10 uM pretreated for 24 hrs followed by OGD for 2 hrs and subsequent reperfusion for 24 hrs (reference value: 43.9 to 45.4 +/- 1.1 %); assay type: functional
Cardiac muscle cell [6] = experiment: Cytoprotective activity against OGD/reperfusion induced injury in Sprague-Dawley rat cardiomyocytes assessed as effect on cell viability at 1 uM pretreated for 24 hrs followed by OGD for 2 hrs and subsequent reperfusion for 24 hrs (reference value: 43.9 to 45.4 +/- 1.1 %); assay type: functional
Cardiac muscle cell [7] = experiment: Cytotoxicity against Sprague-Dawley rat cardiomyocytes assessed as inhibition of cell growth at 10 uM treated for 50 hrs by MTT assay; assay type: cell-based
Cardiac muscle cell [8] = experiment: Cytoprotective activity against OGD/reperfusion induced injury in Sprague-Dawley rat cardiomyocytes assessed as effect on cell viability at 0.1 uM pretreated for 24 hrs followed by OGD for 2 hrs and subsequent reperfusion for 24 hrs (reference value: 43.9 to 45.4 +/- 1.1 %); assay type: functional
Rattus norvegicus [9] = experiment: Cardioprotective activity in ig dosed Sprague-Dawley rat model of LAD coronary artery ligation-induced ischemia/reperfusion assessed as myocardial cell swelling at 10 to 40 mg/kg, ig pretreated twice a day for 3 days and measured 24 hrs post-reperfusion by hematoxylin and eosin staining based assay; assay type: functional, organism-based
Rattus norvegicus [10] = experiment: Cardioprotective activity in ig dosed Sprague-Dawley rat model of LAD coronary artery ligation-induced ischemia/reperfusion assessed as as infarct size of left ventricle size pretreated twice a day for 3 days and measured 24 hrs post-reperfusion by TTC staining based assay; assay type: functional, organism-based

SMILES | Activity (Rattus norvegicus [1]) | inhibition (Rattus norvegicus [2]) | Activity (Rattus norvegicus [3]) | Activity (Rattus norvegicus [4]) | Activity (Cardiac muscle cell [5]) | Activity (Cardiac muscle cell [6]) | Activity (Cardiac muscle cell [7]) | Activity (Cardiac muscle cell [8]) | Activity (Rattus norvegicus [9]) | Activity (Rattus norvegicus [10])
C[C@H](CS)C(=O)N1CCC[C@H]1C(=O)O [CAPTOPRIL] | 34% |  |  |  |  |  |  |  |  | 
CC1(C)CCC[C@](C)([C@H]2CC[C@]3(C)[C@@H]2[C@H](O)C[C@@H]2[C@@]4(C)Cc5c(C(=O)O)noc5C(C)(C)[C@@H]4[C@H](O)C[C@]23C)O1 |  | Dose-dependent effect | 20.5% | inactive | 89.2% | 79.2% | Non-Toxic | 68.2% | inactive | Dose-dependent effect
CC1(C)CCC[C@](C)([C@H]2CC[C@]3(C)[C@@H]2[C@H](O)C[C@@H]2[C@@]4(C)CC[C@H](O)C(C)(C)[C@@H]4[C@H](O)C[C@]23C)O1 |  |  | 30.6% |  | 61.9% | 52.3% | Non-Toxic | 47.8% |  | 
CC1(C)CCC[C@](C)([C@H]2CC[C@]3(C)[C@@H]2[C@H](O)C[C@@H]2[C@@]4(C)Cc5c([nH]c6ccc(Cl)cc56)C(C)(C)[C@@H]4C(=O)C[C@]23C)O1 |  |  |  |  | 62.7% | 57.3% | Non-Toxic | 51.7% |  | 
Cc1ccc2[nH]c3c(c2c1)C[C@]1(C)[C@H]2C[C@@H](O)[C@@H]4[C@@H]([C@@]5(C)CCCC(C)(C)O5)CC[C@@]4(C)[C@]2(C)CC(=O)[C@H]1C3(C)C |  |  |  |  | 73.8% | 66.4% | Non-Toxic | 58.9% |  | 
CC1(C)CCC[C@](C)([C@H]2CC[C@]3(C)[C@@H]2[C@H](O)C[C@@H]2[C@@]4(C)Cc5sc(-c6ccccc6)nc5C(C)(C)[C@@H]4C(=O)C[C@]23C)O1 |  |  |  |  | 75.3% | 68% | Non-Toxic | 59.1% |  | 
CCOC(=O)c1nc2c(s1)C[C@]1(C)[C@H]3C[C@@H](O)[C@@H]4[C@@H]([C@@]5(C)CCCC(C)(C)O5)CC[C@@]4(C)[C@]3(C)CC(=O)[C@H]1C2(C)C |  |  |  |  | 86.6% | 75.3% | Non-Toxic | 59.1% |  | 
CC1(C)CCC[C@](C)([C@H]2CC[C@]3(C)[C@@H]2[C@H](O)C[C@@H]2[C@@]4(C)Cc5sc(-c6cccnc6)nc5C(C)(C)[C@@H]4C(=O)C[C@]23C)O1 |  |  |  |  | 57.2% | 51.3% | Non-Toxic | 46.9% |  | 
COc1ccc2[nH]c3c(c2c1)C[C@]1(C)[C@H]2C[C@@H](O)[C@@H]4[C@@H]([C@@]5(C)CCCC(C)(C)O5)CC[C@@]4(C)[C@]2(C)CC(=O)[C@H]1C3(C)C |  |  |  |  | 88% | 79.6% | Non-Toxic | 70.1% |  | 
CC1(C)CCC[C@](C)([C@H]2CC[C@]3(C)[C@@H]2[C@H](O)C[C@@H]2[C@@]4(C)Cc5c([nH]c6ccccc56)C(C)(C)[C@@H]4C(=O)C[C@]23C)O1 |  |  |  |  | 71.1% | 64.3% | Non-Toxic | 56.9% |  | 
CC1(C)CCC[C@](C)([C@H]2CC[C@]3(C)[C@@H]2[C@H](O)C[C@@H]2[C@@]4(C)Cc5c(CO)nn(-c6ccccc6)c5C(C)(C)[C@@H]4[C@H](O)C[C@]23C)O1 |  |  |  |  | 61.2% | 56.6% | Non-Toxic | 51.6% |  | 
CC1(C)CCC[C@](C)([C@H]2CC[C@]3(C)[C@@H]2[C@H](O)C[C@@H]2[C@@]4(C)Cc5sc(N)nc5C(C)(C)[C@@H]4[C@@H](O)C[C@]23C)O1 |  |  |  |  | 62.4% | 57.6% | Non-Toxic | 52.4% |  | 
CC1(C)CCC[C@](C)([C@H]2CC[C@]3(C)[C@@H]2[C@H](O)C[C@@H]2[C@@]4(C)Cc5c([nH]c6c(F)cccc56)C(C)(C)[C@@H]4C(=O)C[C@]23C)O1 |  |  |  |  | 62.6% | 58% | Non-Toxic | 53.5% |  | 
